Results as given in paper PMC6429507, “Triterpene-Based Carboxamides Act as Good Inhibitors of Butyrylcholinesterase” (Molecules, 2019).
Read-outs that look alike come from different tables or passages of the source.

How the values were obtained:
[1] = Solubility under the conditions of the assay; settings: Ellman's assay conditions
Procedure: (§1) In this study, carboxamides with different triterpenoic backbones (ursolic, oleanolic, maslinic, betulinic, and platanic acids), and various amine residues (Scheme 1), were investigated.
(§2) 3.1 Preparation of the solutions
(§3) Preparation of 50 mM Tris-HCl buffer solutions: Tris(hydroxymethyl)-aminomethane (606 mg) was dissolved in bidestilled water (100 mL) and adjusted with HCl to a pH of 8.0 ± 0.1. Buffers were freshly prepared and stored in the refrigerator. AChE solution 2.005 U/mL: the enzyme (271 U/mg, 0.037 mg) was dissolved in freshly prepared buffer pH 8.0 (5 mL) containing NaN3 (0.98 mg). BChE solution 2.040 U/mL: the enzyme (7.54 U/mg, 1.353 mg) was dissolved in freshly prepared buffer pH 8.0 (5 mL) containing NaN3 (0.98 mg). DTNB solution 3 mM: DTNB (23.8 mg) was dissolved in freshly prepared buffer pH 8.0 (20 mL) containing NaCl (116.8 mg) and MgCl2 (38.0 mg). ATChI solution 15 mM:
(§4) ATChI (43.4 mg) was dissolved in bidestilled water (10 mL). All solutions were stored in Eppendorf caps in the refrigerator or in the freezer, if necessary. The pure compounds were […]
(§5) dissolved in bidistilled water. The final concentrations for the enzymatic assay were obtained by diluting the stock solution with bidistilled water.
(§6) A mixture of the DTNB solution (125 µL), enzyme solution (25 µL) and compounds solutions (25 µL, 3 different concentrations and once blank water) was prepared and incubated at 30 °C for 20 min. The substrate (25 µL, 4 different concentrations) was added to start the enzymatic reaction. The absorbance data (l = 415 nm) was recorded under a controlled temperature of 30 °C for 30 min at 1 min intervals. The substrate concentrations in the test were as follows: […]
(§7) determined as the quotient of the slopes (compound divided by blank) of the linear ranges.
(§8) The used substrate concentration was 0.625 mM. The absorbance data was recorded under a controlled temperature of 30 °C for 10 min.

[2] = molecular target: acetylcholinesterase (AChE, electric eel) (Electrophorus electricus, UniProt O42275); settings: for Grade of inhibition in% AChE / Ki' (uncompetitive inhibition) / Ki: mean ± SE; for Type of Inhibition / Ki' (uncompetitive inhibition) / Ki: AChE, electric eel; for Ki: read-out: Ki (competitive inhibition)
Sequence of acetylcholinesterase (AChE, electric eel) (O42275 24-633): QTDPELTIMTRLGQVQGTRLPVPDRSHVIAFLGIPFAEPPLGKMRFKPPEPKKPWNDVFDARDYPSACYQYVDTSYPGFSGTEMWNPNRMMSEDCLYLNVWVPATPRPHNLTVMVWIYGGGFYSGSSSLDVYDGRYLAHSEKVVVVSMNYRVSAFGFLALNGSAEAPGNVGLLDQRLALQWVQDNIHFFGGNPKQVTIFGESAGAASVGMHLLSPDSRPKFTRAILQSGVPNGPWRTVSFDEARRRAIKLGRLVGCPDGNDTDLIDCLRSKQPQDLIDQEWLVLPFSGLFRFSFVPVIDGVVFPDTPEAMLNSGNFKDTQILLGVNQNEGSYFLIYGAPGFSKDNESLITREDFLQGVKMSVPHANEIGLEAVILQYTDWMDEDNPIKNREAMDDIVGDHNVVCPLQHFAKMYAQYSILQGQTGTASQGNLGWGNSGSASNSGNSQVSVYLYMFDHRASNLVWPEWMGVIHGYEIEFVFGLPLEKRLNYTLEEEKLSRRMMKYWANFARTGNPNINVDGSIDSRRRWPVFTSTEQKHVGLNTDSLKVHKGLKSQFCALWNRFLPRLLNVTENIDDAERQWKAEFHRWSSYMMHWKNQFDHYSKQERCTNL
Description: as §1
(§9) A TECAN SpectraFluorPlus working in the kinetic mode and measuring the absorbance at λ = 415 nm was used for the enzymatic studies. Acetylcholinesterase (from Electrophorus electricus), 5,5′-dithiobis-(2-nitrobenzoic acid) (DTNB) and acetylthiocholine iodide were purchased from Sigma. Butyrylcholinesterase (from equine serum) was purchased from Fluka. Preparation of the solutions, assay procedure, as well as molecular modeling conditions can be found in the Supplementary Materials.
as §2, §3, §4, §5, §6, §7, §8

[3] = molecular target: T1, butyrylcholinesterase (BChE, equine serum) (Equus caballus, UniProt P81908); test: Ellman's assay, butyrylcholinesterase inhibition; format: biochemical; settings: for Grade of inhibition in% BChE: mean ± SE; for selectivity F (percent inhibition for AChE divided by percent inhibition for BChE): towards BChE
T1 construct: Butyrylcholinesterase (from equine serum) was purchased from Fluka; purchased Fluka; host or cells: equine serum
T1 sequence (P81908 whole entry): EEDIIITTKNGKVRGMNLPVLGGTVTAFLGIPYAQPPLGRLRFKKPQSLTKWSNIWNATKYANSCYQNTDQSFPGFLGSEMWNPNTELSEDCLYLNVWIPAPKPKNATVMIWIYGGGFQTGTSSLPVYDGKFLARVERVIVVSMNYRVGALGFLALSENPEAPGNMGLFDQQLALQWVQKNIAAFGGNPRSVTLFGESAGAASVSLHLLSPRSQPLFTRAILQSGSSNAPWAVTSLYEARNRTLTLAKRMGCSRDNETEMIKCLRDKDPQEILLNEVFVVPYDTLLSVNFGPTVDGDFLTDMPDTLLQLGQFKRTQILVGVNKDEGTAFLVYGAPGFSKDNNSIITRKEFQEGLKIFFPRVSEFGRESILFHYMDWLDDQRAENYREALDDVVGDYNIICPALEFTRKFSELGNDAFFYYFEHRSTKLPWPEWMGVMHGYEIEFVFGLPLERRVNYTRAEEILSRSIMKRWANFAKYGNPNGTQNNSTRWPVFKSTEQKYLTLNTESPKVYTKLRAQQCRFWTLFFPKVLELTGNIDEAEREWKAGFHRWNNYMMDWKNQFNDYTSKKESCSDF
Description: as §1, §9, §2, §3, §4, §5, §6, §7, §8

[4] = BChE, equine serum, Ellman's assay
[5] = BChE, equine serum, Ellman's assay, read-out: Ki (competitive inhibition)
[6] = experimental Ki restated in docking Table 3, unit inferred, read-out: Ki

SMILES	Grade of inhibition in% AChE ([2]; c = 10 µM)	Type of Inhibition ([3]; BChE, equine serum)	Grade of inhibition in% BChE ([3]; c = 10 µM) [%]	Grade of inhibition in% AChE ([2]; c = 30 µM) [%]	Ki′ (uncompetitive inhibition) [3, 4] [µM]	Ki [3, 5] [µM]	Grade of inhibition in% BChE ([3]; c = 30 µM) [%]	further results
CC(=O)OC1CCC2(C)C(CCC3(C)C2CC=C2C4CC(C)(C)CCC4(C(=O)NCCN(C)C)CCC23C)C1(C)C (stereo not drawn) [Compound 22, (3β)-N-[2-(Dimethylamino)-ethyl]-3-acetyloxy-olean-12-en-28-amide]								solubility under the conditions of the assay [1]: n.sol.
CC(=O)O[C@H]1CC[C@]2(C)[C@H]3CC[C@@H]4[C@H]5[C@H](C(C)=O)CC[C@]5(C(=O)NCCN(C)C)CC[C@@]4(C)[C@]3(C)CC[C@H]2C1(C)C [Compound 25]	no inhibition	mixed-type	88.49 ± 0.58					
CC1(C)CCC2(C(=O)NCCN3CCCC3)CCC3(C)C(=CCC4C5(C)CC(O)C(O)C(C)(C)C5CCC43C)C2C1 (stereo not drawn) [Compound 38, (2α,3β)-N-(2-Pyrrolidin-1-ylethyl)-2,3-dihydroxy-olean-12-en-28-amide]		mixed-type		23.33 ± 0.22	14.15 ± 2.42	2.06 ± 0.03	77.49 ± 0.10	
CC(=O)O[C@H]1CC[C@@]2(C)C(CC[C@]3(C)C2CC=C2C4[C@@H](C)[C@H](C)CC[C@]4(C(=O)NCCN4CCCC4)CC[C@]23C)C1(C)C (stereo partly shown) [Compound 31]	14.54 ± 0.36%	mixed-type	50.49 ± 2.23		6.00 ± 0.47	4.42 ± 0.34		Ki [3, 6]: 4.42 µM
C=C(C)C1CC[C@]2(C(=O)NCCN3CCCC3)CC[C@]3(C)C(CCC4[C@@]5(C)CC[C@H](O)C(C)(C)C5CC[C@]43C)C12 (stereo partly shown) [Compound 39]		mixed-type		58.81 ± 0.80	> 9	3.24 ± 0.58	60.48 ± 0.05	
CC(=O)O[C@H]1CC[C@]2(C)[C@H]3CC[C@@H]4[C@H]5[C@H](C(C)=O)CC[C@]5(C(=O)NCCN5CCCC5)CC[C@@]4(C)[C@]3(C)CC[C@H]2C1(C)C [Compound 35, (3β)-N-(2-pyrrolidin-1-ylethyl)-3-acetyloxy-20-oxo-30-norlupan-28-amide]		mixed-type		19.97 ± 0.13	2.38 ± 0.48	0.07 ± 0.01	94.60 ± 0.02	Ki [3, 6]: 0.07 µM; selectivity F (percent inhibition for AChE divided by percent inhibition for BChE) [3]: ≈ 0.21
CC(=O)OC1CCC2(C)C(CCC3(C)C2CC=C2C4CC(C)(C)CCC4(C(=O)NCCN)CCC23C)C1(C)C (stereo not drawn) [Compound 12, (3β)-N-(2-Aminoethyl)-3-acetyloxy-olean-12-en-28-amide]				31.69 ± 0.04			57.54 ± 0.93	
CC(=O)OC1CCC2(C)C(CCC3(C)C2CC=C2C4CC(C)(C)CCC4(C(=O)NCCN4CCCCC4)CCC23C)C1(C)C (stereo not drawn) [Compound 42, (3β)-N-(2-Piperidin-1-ylethyl)-3-acetyloxy-olean-12-en-28-amide]				45.57 ± 0.25			53.09 ± 0.14	
CC(=O)OC1CC2(C)C(CCC3(C)C2CC=C2C4CC(C)(C)CCC4(C(=O)NCCN)CCC23C)C(C)(C)C1OC(C)=O (stereo not drawn) [Compound 13, (2α,3β)-N-(2-Aminoethyl)-2,3-diacetyloxy-olean-12-en-28-amide]	31.91 ± 0.32%		40.83 ± 0.21					
CN(C)CCNC(=O)C12CCC(C)(C)CC1C1=CCC3C4(C)CCC(O)C(C)(C)C4CCC3(C)C1(C)CC2 (stereo not drawn) [Compound 27, (3β)-N-[2-(Dimethylamino)-ethyl]-3-hydroxy-olean-12-en-28-amide]	5.54 ± 0.07%	mixed-type	67.10 ± 0.07		9.07 ± 0.02	1.31 ± 0.01		selectivity F (percent inhibition for AChE divided by percent inhibition for BChE) [3]: 0.08
C=C(C)C1CC[C@]2(C(=O)NCCN(C)C)CC[C@]3(C)C(CCC4[C@@]5(C)CC[C@H](O)C(C)(C)C5CC[C@]43C)C12 (stereo partly shown) [Compound 29]		mixed-type		22.12 ± 4.01	16.11 ± 0.18	3.52 ± 0.07	56.68 ± 0.01	
CN(C)CCNC(=O)[C@]12CCC(C)(C)C[C@H]1C1=CC[C@@H]3[C@@]4(C)C[C@@H](O)[C@H](O)C(C)(C)[C@@H]4CC[C@@]3(C)[C@]1(C)CC2 [Compound 28, (2α,3β)-N-[2-(Dimethylamino)-ethyl]-2,3-dihydroxy-olean-12-en-28-amide]		mixed-type		13.47 ± 0.55	27.26 ± 3.47	2.2 ± 0.25	79.01 ± 0.29	
C=C(C)C1CC[C@]2(C(=O)NCCN3CCCCC3)CC[C@]3(C)C(CCC4[C@@]5(C)CC[C@H](OC(C)=O)C(C)(C)C5CC[C@]43C)C12 (stereo partly shown) [Compound 44]				22.78 ± 0.85			33.83 ± 0.43	
CC(=O)[C@@H]1CC[C@]2(C(=O)NCCN3CCCC3)CC[C@]3(C)[C@H](CC[C@@H]4[C@@]5(C)CC[C@H](O)C(C)(C)[C@@H]5CC[C@]43C)[C@@H]12 [Compound 40]		mixed-type		33.06 ± 0.45	> 10	0.45 ± 0.01	89.15 ± 0.44	Type of Inhibition [2]: mixed-type; Ki' (uncompetitive inhibition) [2]: 23.63 ± 0.39 µM; Ki [2]: 27.9 ± 2.99 µM
CC(=O)OC1CC2(C)C(CCC3(C)C2CC=C2C4CC(C)(C)CCC4(C(=O)NCCN(C)C)CCC23C)C(C)(C)C1OC(C)=O (stereo not drawn) [Compound 23, (2α,3β)-N-[2-(Dimethylamino)ethyl]-2,3-diacetyloxy-olean-12-en-28-amide]								solubility under the conditions of the assay [1]: n.sol.
CC(=O)O[C@H]1CC[C@@]2(C)C(CC[C@]3(C)C2CC=C2C4[C@@H](C)[C@H](C)CC[C@]4(C(=O)NCCN4CCCCC4)CC[C@]23C)C1(C)C (stereo partly shown) [Compound 41]								solubility under the conditions of the assay [1]: n.sol.
CC(=O)[C@@H]1CC[C@]2(C(=O)NCCN(C)C)CC[C@]3(C)[C@H](CC[C@@H]4[C@@]5(C)CC[C@H](O)C(C)(C)[C@@H]5CC[C@]43C)[C@@H]12 [Compound 30]		mixed-type		28.83 ± 0.80	4.46 ± 0.01	1.12 ± 0.01	89.76 ± 0.48	Type of Inhibition [2]: mixed-type; Ki' (uncompetitive inhibition) [2]: 74.05 ± 4.81 µM; Ki [2]: 15.5 ± 3.91 µM
C[C@@H]1CC[C@]2(C(=O)NCCN)CC[C@]3(C)C(=CCC4[C@@]5(C)CC[C@H](O)C(C)(C)C5CC[C@]43C)C2[C@H]1C (stereo partly shown) [Compound 16]	28.54 ± 0.51%	mixed-type	64.10 ± 1.04		12.15 ± 0.45	5.55 ± 0.12		
CC1(C)CC[C@]2(C(=O)NCCN)CC[C@]3(C)C(=CC[C@@H]4[C@@]5(C)CC[C@H](O)C(C)(C)[C@@H]5CC[C@]43C)[C@@H]2C1 [Compound 17, (3β)-N-(2-Aminoethyl)-3-hydroxy-olean-12-en-28-amide]	88.61 ± 0.22%	mixed-type	49.10 ± 0.47		7.68 ± 0.61	1.93 ± 0.13		Type of Inhibition [2]: mixed-type; Ki' (uncompetitive inhibition) [2]: 18.24 ± 0.06 µM; Ki [2]: 8.53 ± 0.34 µM
